Measured values taken from PubChem BioAssay (NCI).
Several values for one entry are separate records, joined by “and”; a condition that tells them apart may be missing. Identical values can stand only once.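 Five concentrations, 48 hours, 96-well plates. GI50 marks 50% less growth. At the TGI there is no net growth.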

Key:
Experiment in all cases: DTP human tumour cell line panel, 48 h
786-0 renal = system: 786-0 renal
ACHN renal = system: ACHN renal
BT-549 breast = system: BT-549 breast
CCRF-CEM leukemia = system: CCRF-CEM leukemia
COLO 205 colon = system: COLO 205 colon
HS 578T breast = system: HS 578T breast
RPMI-8226 leukemia = system: RPMI-8226 leukemia
SF-295 CNS = system: SF-295 CNS
SNB-75 CNS = system: SNB-75 CNS
SR leukemia = system: SR leukemia

| SMILES | GI50 (786-0 renal) [µM] | TGI (786-0 renal) [µM] | GI50 (ACHN renal) [µM] | TGI (ACHN renal) [µM] | GI50 (BT-549 breast) [µM] | TGI (BT-549 breast) [µM] | GI50 (CCRF-CEM leukemia) [µM] | TGI (CCRF-CEM leukemia) | GI50 (COLO 205 colon) [µM] | TGI (COLO 205 colon) [µM] | GI50 (HS 578T breast) [µM] | TGI (HS 578T breast) [µM] | GI50 (RPMI-8226 leukemia) [µM] | TGI (RPMI-8226 leukemia) [µM] | GI50 (SF-295 CNS) [µM] | TGI (SF-295 CNS) [µM] | GI50 (SNB-75 CNS) [µM] | TGI (SNB-75 CNS) [µM] | GI50 (SR leukemia) [µM] | TGI (SR leukemia) [µM] |
| --- | --- | --- | --- | --- | --- | --- | --- | --- | --- | --- | --- | --- | --- | --- | --- | --- | --- | --- | --- | --- |
| CCOC(=O)c1c(-c2ccc(OC)cc2)c(C#N)c2c(C#N)c(N)nn2c1N | 3.85 | 23.3 | 4.02 | 48.5 | 2.65 | 28.1 | 2.46 | > 100 µM | 2.8 | 9.98 | 2.96 | 27.6 | 2.31 | > 100 | 2.98 | 32.9 | 1.84 | 7.59 | 2.05 | > 100 |
| CN1CC[C@@H](c2c(O)cc(O)c3c(=O)cc(-c4ccc(C(F)(F)F)cc4Cl)oc23)[C@@H]1CO | 13.3 | 31.9 | 10.6 | 38 | 12.2 | 25.9 | 23.4 | 70.2 µM | 15.1 | 32.9 | 11.8 | 33.6 | 17.3 | 53.5 | 16.7 | 36.4 | 6.89 | 22 | 3.21 | 17 |
| CC1(Br)Cc2ccccc2C1=O (configuration not stated) |  | 6.39 |  | 16.8 |  | 5.03 | 0.318 | 6.75 µM and 1.82 µM |  | 17.5 |  | 38.6 | 3.02 | 14.7 |  | 36.2 |  | 27 | 0.129 | 1.25 |
| Cn1c(Nc2ccc(C(F)(F)F)cc2)nc2cc(Oc3ccnc(-c4ncc(C(F)(F)F)[nH]4)c3)ccc21 | 2.22 | 13.9 | 0.0354 | 11.7 | 0.155 | 12.2 | 0.251 | 5.17 µM | 0.367 | 10.6 | 0.0555 | 9.41 | 1.49 | 15.2 | 0.402 | 11.8 | 0.297 | 26.2 | 0.0457 | 13.2 |
| C=COC(=O)N[C@H]1CCc2cc(OC)c(OC)c(OC)c2-c2ccc(SC)c(=O)cc21 |  | 50.8 |  | 64.9 |  | < 0.01 |  | > 80.1 µM |  | < 0.01 |  | > 4.64 |  | 52.1 |  | 0.0769 |  | 14.4 |  | > 15.5 |
| O=C1c2cccc3cccc(c23)C(=O)N1CCCCCN1CCN(CCCCCOc2ccc(-c3nc4ccc(N5CCOCC5)cc4[nH]3)cc2)CC1 | 22.9 | 51.3 | > 35.7 | > 56.1 | 4.88 | 23.2 | 1.31 | 8.97 µM | 13.1 | 28.7 | 21.8 | 45.4 | 0.787 | 3.72 | 8.04 | 25.4 | 18.3 | 34.6 | 1.18 | 3.2 |
| CN(C)c1ccc(N=Nc2ccccn2)c(O)c1 | 0.246 | 15.9 | 0.271 | > 100 | 0.391 | > 100 | 0.0979 |  | 0.345 | > 34.8 | 3.53 | > 85.5 | 0.348 | > 100 | 0.359 | > 100 | 0.453 | 96.9 | 0.123 | > 100 |
| CC12CCC3c4ccc(O)cc4CCC3C1C/C(=N\O)C2O (configuration not stated) |  | > 100 |  | > 100 |  | > 100 |  | > 100 µM |  | > 100 |  | > 100 |  | > 100 |  | > 100 |  | > 100 |  | > 100 |
| O=C(NNc1ccccc1)C(=O)NNc1ccccc1 | 53.9 | > 100 | 2.03 | > 100 | 42.4 | > 100 | 0.637 | > 100 µM | 2.73 | 48.5 | > 100 | > 100 | > 100 | > 100 | 2.1 | > 100 | 11.6 | > 100 | 0.919 | > 100 |
| BrCc1cccc(C[P+](c2ccccc2)(c2ccccc2)c2ccccc2)c1 | 46.2 | > 100 | > 100 | > 100 | 34.5 | > 100 | 13.3 | > 100 µM | 4.57 | 18.9 | 18.4 | > 100 | 2.18 | 22.7 | 35.5 | > 100 | 6.78 | > 100 | 25.8 | > 100 |
